{
  "source": "patent US20240247024A1",
  "about": "“INHIBITORS OF NICOTINAMIDE N-METHYL TRANSFERASE (NNMT)” (UNIVERSITEIT LEIDEN, priority 2021, published 2024)",
  "origin": "cited, not measured here",
  "key": {"U2OS cells": {"tested_on": "U2OS cells", "details": "cited from earlier work"}, "NNMT": {"biological_target": "T1, NNMT (Homo sapiens, UniProt P40261)", "T1 sequence (P40261 1-264)": "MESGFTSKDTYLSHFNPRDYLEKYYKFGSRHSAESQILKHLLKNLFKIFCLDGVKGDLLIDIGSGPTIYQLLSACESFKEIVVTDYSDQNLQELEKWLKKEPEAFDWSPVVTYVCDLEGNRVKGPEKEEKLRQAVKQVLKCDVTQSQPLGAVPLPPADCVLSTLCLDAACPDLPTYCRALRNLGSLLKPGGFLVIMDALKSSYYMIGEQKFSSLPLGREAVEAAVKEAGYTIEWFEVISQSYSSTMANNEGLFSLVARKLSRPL", "design": "The enzymatic activity assays were performed using NNMT at a final concentration of 100 nM diluted in assay buffer", "details": "background section, cited from earlier work"}, "aged mouse model": {"tested_on": "aged mouse model", "details": "cited from earlier work"}, "[1]": {"tested_on": "diet-induced obese (DIO) mice", "details": "cited from earlier work"}, "[2]": {"details": "rapidly degraded by SAHH to adenosine and homocysteine; cited from earlier work"}, "[3]": {"details": "cited from earlier work"}, "[4]": {"details": "cited from earlier work", "remark": "listed apart in the source"}, "[5]": {"details": "cited from earlier work", "remark": "listed apart in the source"}, "HSC-2 oral cancer cells": {"tested_on": "HSC-2 oral cancer cells", "details": "cited from earlier work"}},
  "data": [
    {"smiles": "NC(=O)c1cccc(C#C[C@@H](CC[C@H](N)C(=O)O)C[C@H]2O[C@@H](n3cnc4c(N)ncnc43)[C@H](O)[C@@H]2O)c1", "note": "[NS1]", "values": [
      {"measurement": "MNA levels in cells", "setting": "U2OS cells", "value": "only moderately decreased"},
      {"measurement": "Ki", "setting": "NNMT; known bisubstrate inhibitors, read-out: Ki against NNMT", "value": 0.5, "unit": "nM"}
    ]},
    {"smiles": "C[n+]1cccc2c(N)cccc21", "note": "[Compound 5-amino-1-MQ, 5-amino-1-MQ]", "values": [
      {"measurement": "muscle regeneration", "setting": "aged mouse model", "value": "accelerate muscle regeneration"},
      {"measurement": "adipocyte size", "setting": "[1]", "value": "decreased"},
      {"measurement": "body weight and white adipose mass", "setting": "[1]", "value": "significantly reduced"},
      {"measurement": "plasma total cholesterol levels", "setting": "[1]", "value": "lowered"},
      {"measurement": "IC50", "setting": "NNMT; known NNMT inhibitors, read-out: IC50 against NNMT", "value": 1200, "unit": "nM"}
    ]},
    {"smiles": "Nc1ncnc2c1ncn2[C@@H]1O[C@H](CSCC[C@H](N)C(=O)O)[C@@H](O)[C@H]1O", "note": "[SAH, S-adenosyl-1-homocysteine]", "values": [
      {"measurement": "activity in cellular assays", "setting": "[2]", "value": "loses its activity"}
    ]},
    {"smiles": "Nc1ncnc2c1ncn2[C@@H]1O[C@H](C[C@@H](N)CC[C@H](N)C(=O)O)[C@@H](O)[C@H]1O", "note": "[Sinefungin, sinefungin]", "values": [
      {"measurement": "cell membrane permeability", "setting": "[3]", "value": "low cell membrane permeability"},
      {"measurement": "toxicity in animal models", "setting": "[4]", "value": "severe toxicity"}
    ]},
    {"smiles": "NC(=O)c1cccc(C#CCN(CC[C@H](N)C(=O)O)C[C@H]2O[C@@H](n3cnc4c(N)ncnc43)[C@H](O)[C@@H]2O)c1", "note": "[LL320]", "values": [
      {"measurement": "cell permeability", "setting": "[5]", "value": "poor cell permeability"}
    ]},
    {"smiles": "Nc1ncnc2c1ncn2[C@@H]1O[C@H](CN(CC[C@H](N)C(=O)O)Cc2ccc3ccccc3c2)[C@@H](O)[C@H]1O", "note": "[GYZ191]", "values": [
      {"measurement": "effect on cell viability", "setting": "HSC-2 oral cancer cells", "value": "significant inhibitory effect"}
    ]}
  ]
}
